This passage reports LT50 and log10LT50 results from ChEMBL document CHEMBL3046128, “Sustainable synthesis of flavonoid derivatives, QSAR study and insecticidal activity against the fall armyworm, Spodoptera frugiperda (Lep.: Noctuidae)” (2010).

This experiment deals with Spodoptera frugiperda. In words: Insecticidal activity against first-instar larval-stage of Spodoptera frugiperda (fall armyworm) strain corn in compound-pretreated corn leaves assessed as mortality rate at 2000 mg/kg. Format: functional.

Each structure is given as a SMILES string.

`O=c1cc(-c2ccccc2)oc2cc(Cl)ccc12` [7-CHLOROFLAVONE]: the LT50 amounted to 29.33 h and the log10LT50 came out at 1.467.
The matching figures for `O=c1cc(-c2ccccc2)oc2ccc(Br)cc12` [6-BROMOFLAVONE]: 43.86 h and 1.642.
The matching figures for `O=c1ccoc2ccccc12` [CHROMONE]: 55.42 h and 1.744.
The matching figures for `COc1ccc2c(=O)cc(-c3ccccc3)oc2c1` [7-METHOXYFLAVONE]: 114.38 h and 2.058.
As for `O=c1cc(-c2ccccc2)oc2cc(O)ccc12` [7-HYDROXYFLAVONE], the LT50 was found to be 106.94 h and the log10LT50 amounted to 2.029.
The matching figures for `Cc1ccc2c(=O)cc(-c3ccccc3)oc2c1` [7-METHYLFLAVONE]: 105.46 h and 2.023.
For the compound `O=c1cc(-c2ccccc2)oc2cc(Br)ccc12` [7-BROMOFLAVONE], the LT50 was 89.73 h and the log10LT50 is 1.953.
The matching figures for `O=c1cc(-c2ccccc2)oc2ccc(Cl)cc12` [6-CHLOROFLAVONE]: 53.36 h and 1.727.
`O=c1cc(-c2ccccc2)oc2ccccc12` [FLAVONE]: the LT50 was 51.19 h and the log10LT50 came to 1.709.
Turning to `O=c1cc(-c2ccccc2)oc2cc(F)ccc12` [7-FLUOROFLAVONE], the LT50 was 63.76 h and the log10LT50 amounted to 1.805.
The matching figures for `O=c1c2ccccc2oc2ccccc12` [XANTHONE]: 53.78 h and 1.731.
Consider `Cc1ccc2oc(-c3ccccc3)cc(=O)c2c1` [6-METHYLFLAVONE], for which the LT50 stood at 93 h and the log10LT50 is reported as 1.968.
`O=C1CC(c2ccccc2)Oc2ccccc21` (stereo not given) [FLAVANONE]: the log10LT50 is 1.656.
